Assay results from US20250057788A1, “COMPOSITIONS AND METHODS FOR TREATMENT OF CHRONIC PAIN AND DEPRESSION” (priority 2023, published 2025).
Counter-ions that a name gives are not always drawn.

Experiments:
[1] = tested on: formalin-induced pain (paw licking behavior); assay: Rat formalin test (paw licking, acute and delayed/chronic phase); assay type: in vivo; settings: for enhancement of the effects of ketamine 100 μM: hydroxide combined with ketamine 100 μM; for enhancement of the effects of ketamine 100 μM / Acute paw lick response, Mean / Chronic (delayed) paw lick response, Mean / delayed paw licking responses vs. control: Example 4; for delayed hind paw licking (marginal means), Mean: TAS2R ligand .5 mM; for Acute paw lick response, Mean / Chronic (delayed) paw lick response, Mean / delayed paw licking responses vs. control: 100 μM; for Paw licking time, Acute, Mean / Paw licking time, Chronic, Mean: NaOH where added equimolar; for Paw licking time, Acute, Mean: acute phase 0-10 min after formalin; for Paw licking time, Chronic, Mean: delayed phase from 10 min after formalin
Description: In this test, effects are measured on both acute and delayed formalin-induced pain, as reflected in paw licking behavior.
Methods: All studies were performed at Psychogenics, Inc. (Tarrytown, NY). Male SD rats (Envigo) were used in the study. All rats were examined and weighed (about 200 g) prior to initiation of the study to assure adequate health and suitability. For the formalin test, rats were habituated for 30 min in observation chambers with cameras positioned underneath. After the pre-treatment time, animals received a subcutaneous injection into the plantar surface of the left hind-paw with 15 μl of 5% formalin using a Hamilton micro-syringe and a 30-gauge needle.
Rats were returned to the observation chamber and immediately observed for behavior. The total time spent licking, flinching or biting the treated hind-paw over the next 35 min was recorded and videos were scored by a trained observer blinded to the treatment group. The acute response was evaluated in 5 min intervals for 0-10 min, and the delayed response was evaluated from 10-35 or 10-40 min.
For this experiment, effects of ketamine alone vs. ketamine+NaOH were assessed at concentrations between 30 uM (μM) and […] vs. control. Secondary analyses evaluated relative effects of ketamine+NaOH vs. ketamine alone. Analyses were performed by between-group t-tests or multiway ANOVA as expected. For each experiment, outliers ±2SD from the group means were removed from the analyses as flagged in study reports.
Methods: Overall methods were the same as for Example 1. However, for this study, the concentration of ketamine was fixed at 100 μM across conditions, and the ratio of NaOH to ketamine was varied from 1:10 (0.1 ratio) to 1:2 (0.5 ratio) to 3:4 (0.75 ratio) to 1:1 (1.0 ratio). An ANOVA was conducted across ratios to determine statistical significance.
Methods: Formalin test methods were the same as for examples 1 and 2. […] Denatonium was additionally administered combined with Ketamine 100 μM.
In order to evaluate the specificity of the synergistic effect between ketamine and NaOH, formalin tests were evaluated in combination with other hydroxides, including Ca(OH)2 and KOH. […] Formalin tests were therefore conducted in the presence of 100 μM S-ketamine relative to racemic ketamine.

[2] = tested on: depression-related behaviors in SNL animals with chronic pain; assay: Forced swim test in spinal nerve ligation (SNL) rats; assay type: in vivo, rat; settings: ketamine NaOH at 0.5 ratio, FIG. 5
Text: Chronic pain may also lead to depressive symptoms that cause additional disability and may reflect an independent treatment target. Anti-depression effects may be modeled in rodents using behavioral measures including the forced swim test, which measures the time that rodents remain immobile when placed in water. In one model, chronic pain Is created by spinal nerve ligation (SNL) in which a ligation is placed around the left L5 nerve, which leads to hypersensitivity of the paw withdrawal threshold.
Methods: Male Sprague Dawley rats (about 150 g on arrival) from Envigo were used. Upon receipt animals were group housed for the remainder of their stay at PsychoGenics. […]
Spinal nerve ligation: Under general anesthesia with continuous inhalation of isoflurane, surgery was performed with aseptic procedures. […] Each rat was monitored until awake and moving freely around the recovery chamber. […]
Forced swim test: The forced swim (FS) test is considered to predict anti-depression effects. When rats are forced to swim in a small cylinder from which no escape is possible, they readily adopt a characteristic immobile posture and make no further attempts to escape except for small movements needed to prevent them from drowning. […] Immobility, climbing, and swimming behaviors were recorded every 5 sec for a total of 60 counts per subject. […]

SMILES: [K+].[OH-] [KOH]
- enhancement of the effects of ketamine 100 μM [1]: Neither Ca(OH)2 or KOH enhanced

SMILES: C=C[C@H]1C[N@@]2CC[C@H]1C[C@@H]2[C@@H](O)c1ccnc2ccc(OC)cc12 [Quinidine, Quinidine gluconate]
- delayed hind paw licking (marginal means), Mean [1]: 288.6 s

SMILES: CC[N+](CC)(CC(=O)Nc1c(C)cccc1C)Cc1ccccc1 [Denatonium, Denatonium benzoate]
- delayed hyperalgesic response vs. control ([1]; 0.5 mM, p=0.029): significant reduction in hyperalgesia
- delayed hind paw licking (marginal means), Mean [1]: 161.0 s

SMILES: CNC1(c2ccccc2Cl)CCCCC1=O (racemic) [Ketamine, Ketamine HCl]
- Acute paw lick response, Mean [1]: 54.5
- Chronic (delayed) paw lick response, Mean [1]: 196.4
- delayed paw licking responses vs. control [1]: did not significantly reduce delayed responses
- inhibition of delayed response ([1]; concentrations of ≥30 mM, all p<0.005): significant inhibition of delayed response
- effects on acute response ([1]; doses of ≥100 mM, all p<0.001, suggesting non-specific behavioral effects): significant effects
- Paw licking time, Acute, Mean ([1]; ketamine 30 μM): 55.20 s
- Paw licking time, Chronic, Mean ([1]; ketamine 30 μM): 56.00 s
- delayed response, post-hoc difference vs. control ([1]; ketamine 30 μM, one-way ANOVA): significant post-hoc differences vs. control
- Paw licking time, Acute, Mean ([1]; ketamine 100 μM): 50.95 s
- Paw licking time, Chronic, Mean ([1]; ketamine 100 μM): 140.71 s
- Paw licking time, Acute, Mean ([1]; ketamine 300 μM): 40.50 s
- Paw licking time, Chronic, Mean ([1]; ketamine 300 μM): 147.00 s
- Paw licking time, Acute, Mean ([1]; ketamine 30 mM): 39.44 s
- Paw licking time, Chronic, Mean ([1]; ketamine 30 mM): 49.88 s
- Paw licking time, Acute, Mean ([1]; ketamine 100 mM): 0.11 s
- Paw licking time, Chronic, Mean ([1]; ketamine 100 mM): 0.00 s
- Paw licking time, Acute, Mean ([1]; ketamine 300 mM): 0.11 s
- Paw licking time, Chronic, Mean ([1]; ketamine 300 mM): 0.00 s
- immobility time [2]: significantly reduced immobility time
- swimming time [2]: increased swimming time

SMILES: [Ca+2].[OH-].[OH-] [Ca(OH)2]
- enhancement of the effects of ketamine 100 μM [1]: Neither Ca(OH)2 or KOH enhanced

SMILES: CN[C@]1(c2ccccc2Cl)CCCCC1=O [S-ketamine]
- Acute paw lick response, Mean [1]: 50.5
- Chronic (delayed) paw lick response, Mean [1]: 120.6
- delayed paw licking responses vs. control [1]: numeric decreases in delayed paw licking vs. control, but the differences were not statistically significant
